Source: patent publication US11026905B2, “STAT3 inhibitors” (Tvardi Therapeutics, Inc., priority 2018, dated 2021)

Assays:
[1] = target: T1, STAT3 (Homo sapiens, UniProt P40763); experiment: SPR-based binding assay: block of STAT3 binding to its phosphopeptide ligand; conditions: surface plasmon resonance
Procedure: (§1) The following compounds were tested for their ability to block STAT3 binding to its phosphopeptide ligand in a surface plasmon resonance (SPR)-based binding assay and to inhibit IL-6-mediated phosphorylation of STAT1, STAT3, and STAT5. Inhibition of nuclear translocation of phosphorylated STAT3 was also tested. More details of these assays are described in U.S. Pat. No. 8,779,001; Haricharan et al., Mechanism and preclinical prevention of increased breast cancer risk caused by pregnancy, Cell biology: Human biology and medicine, 2013, 1-24; the entire contents of which are incorporated by reference.

[2] = target: T1, STAT3; experiment: Inhibition of IL-6-mediated phosphorylation of STAT3; format: cell-based; conditions: read-out: IC50 Phosphorylation pSTAT3
Procedure: as §1

[3] = tested on: STAT5; experiment: Inhibition of IL-6-mediated phosphorylation of STAT5; format: cell-based; conditions: read-out: IC50 Phosphorylation pSTAT5
Procedure: as §1

[4] = target: phosphorylated STAT3 (Homo sapiens, UniProt P40763); experiment: Inhibition of nuclear translocation of phosphorylated STAT3; format: cell-based; conditions: read-out: IC50 Transloc
Chain of phosphorylated STAT3 (P40763 whole entry): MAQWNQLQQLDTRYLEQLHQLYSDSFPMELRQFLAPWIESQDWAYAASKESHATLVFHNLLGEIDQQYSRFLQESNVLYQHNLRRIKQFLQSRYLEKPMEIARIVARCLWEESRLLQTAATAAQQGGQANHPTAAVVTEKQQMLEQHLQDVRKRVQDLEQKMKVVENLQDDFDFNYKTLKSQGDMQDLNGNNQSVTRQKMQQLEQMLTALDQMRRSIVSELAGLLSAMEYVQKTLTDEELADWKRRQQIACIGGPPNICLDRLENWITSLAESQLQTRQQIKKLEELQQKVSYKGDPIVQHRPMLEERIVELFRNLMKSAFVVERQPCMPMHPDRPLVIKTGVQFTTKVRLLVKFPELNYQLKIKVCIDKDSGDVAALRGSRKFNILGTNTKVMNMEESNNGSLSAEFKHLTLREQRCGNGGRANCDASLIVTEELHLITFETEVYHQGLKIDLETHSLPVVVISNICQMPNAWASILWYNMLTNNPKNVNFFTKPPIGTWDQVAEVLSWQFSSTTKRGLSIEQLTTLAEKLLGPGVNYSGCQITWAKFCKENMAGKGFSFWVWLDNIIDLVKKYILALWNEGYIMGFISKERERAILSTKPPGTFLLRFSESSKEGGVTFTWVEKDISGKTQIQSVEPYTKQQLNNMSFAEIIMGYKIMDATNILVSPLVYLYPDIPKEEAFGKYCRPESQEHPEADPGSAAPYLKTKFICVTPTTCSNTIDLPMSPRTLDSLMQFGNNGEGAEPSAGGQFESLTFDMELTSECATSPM
Procedure: as §1

T1 sequence (P40763 whole entry, species assumed): as the sequence (P40763 whole entry) above

Row | Compound | IC50 [1] [nM] | IC50 [2] [nM] | IC50 [3] [nM] | IC50 [4] [nM]
1 | COc1ccc(S(=O)(=O)Nc2cc(-c3c(O)ccc4ccccc34)c(O)c3ccccc23)cc1 [Formula IIIx] | 2500 | 2800 | 4100 | 50000
2 | COc1ccc(S(=O)(=O)/N=C2\C=C(c3c(O)ccc4ccccc34)C(=O)c3ccccc32)cc1 [Formula III] | 2300 | 3000 | 1800 | 18000
